In data set [1] the test system is A549. The experiment in a line: cells. It is filed as functional, cell-based. Conditions: Homo sapiens, A549, 72 h.
Description: Antiproliferative activity against human A549 cells assessed as inhibition of cell proliferation under normoxia conditions after 72 hrs by SRB assay
Data set [2] concerns HT-29. The data set is described as follows: cells. It is filed as functional, cell-based. Conditions: Homo sapiens, HT-29, 72 h.
Description: Antiproliferative activity against human HT-29 cells assessed as inhibition of cell proliferation under hypoxia conditions after 72 hrs by SRB assay
For data set [3], the system named is HT-29. The experiment in a line: cells. It is filed as functional, cell-based. The following applies: Homo sapiens, HT-29, 72 h. The source holds these as a separate data set.
Description: Antiproliferative activity against human HT-29 cells assessed as inhibition of cell proliferation under normoxia conditions after 72 hrs by SRB assay
Data set [4] has as its system A549. The experiment in a line: cells. It is filed as functional, cell-based. Conditions: Homo sapiens, A549, 72 h. The source holds these as a separate data set.
Description: Antiproliferative activity against human A549 cells assessed as inhibition of cell proliferation under hypoxia conditions after 72 hrs by SRB assay
Data set [5] addresses Epidermal growth factor receptor (Homo sapiens, UniProt P00533).
Description: Inhibition of wild type EGFR (unknown origin) by Z'-Lyte kinase assay
Data set [6] can be described thus: Bioreductive drug activation in pH 7.4 PBS solution assessed as formation of hydroxylamino-imidazole at 4.2 umol incubated for 6 hrs in presence of cysteine and zinc dust by HPLC-Q-ToF-MS method.
Data set [7] is described as follows: Drug metabolism in mouse liver microsomes at 5 uM in presence of NADPH incubated for 30 mins under normoxia conditions by HPLC method. The format is ADME. The following applies: read-out: Drug metabolism. Background: Liver microsomes are vesicles of endoplasmic reticulum, rich in cytochrome P450 enzymes.
For data set [8], the system named is A549. The experiment in a line: Induction of apoptosis in human A549 cells at 10 uM under hypoxia conditions after 72 hrs by annexin VFITC/propidium iodide staining based flow cytometry (reference value: 4.7%). The format is functional. In general terms: A flow cytometer gives signals particle by particle.
For data set [9], the system named is A549. The data set is described as follows: Induction of apoptosis in human A549 cells at 10 uM under normoxia conditions after 72 hrs by annexin VFITC/propidium iodide staining based flow cytometry (reference value: 3.94%). The format is functional.
Data set [10] in a line: Drug metabolism in mouse liver microsomes at 5 uM in presence of NADPH incubated for 30 mins under hypoxia conditions by HPLC method. The format is ADME. Conditions: read-out: Drug metabolism.
Data set [11] is described as follows: Bioreductive drug activation in pH 7.4 PBS solution assessed as formation of imidazole radical at 4.2 umol incubated for 6 hrs in presence of cysteine and zinc dust by HPLC-Q-ToF-MS method.

Structures are written as SMILES. pIC50: −log10 of the molar value.

Usually pIC50 stands for the negative decadic logarithm of the IC50, by convention in mol/L.

Chain of Epidermal growth factor receptor (P00533 whole entry): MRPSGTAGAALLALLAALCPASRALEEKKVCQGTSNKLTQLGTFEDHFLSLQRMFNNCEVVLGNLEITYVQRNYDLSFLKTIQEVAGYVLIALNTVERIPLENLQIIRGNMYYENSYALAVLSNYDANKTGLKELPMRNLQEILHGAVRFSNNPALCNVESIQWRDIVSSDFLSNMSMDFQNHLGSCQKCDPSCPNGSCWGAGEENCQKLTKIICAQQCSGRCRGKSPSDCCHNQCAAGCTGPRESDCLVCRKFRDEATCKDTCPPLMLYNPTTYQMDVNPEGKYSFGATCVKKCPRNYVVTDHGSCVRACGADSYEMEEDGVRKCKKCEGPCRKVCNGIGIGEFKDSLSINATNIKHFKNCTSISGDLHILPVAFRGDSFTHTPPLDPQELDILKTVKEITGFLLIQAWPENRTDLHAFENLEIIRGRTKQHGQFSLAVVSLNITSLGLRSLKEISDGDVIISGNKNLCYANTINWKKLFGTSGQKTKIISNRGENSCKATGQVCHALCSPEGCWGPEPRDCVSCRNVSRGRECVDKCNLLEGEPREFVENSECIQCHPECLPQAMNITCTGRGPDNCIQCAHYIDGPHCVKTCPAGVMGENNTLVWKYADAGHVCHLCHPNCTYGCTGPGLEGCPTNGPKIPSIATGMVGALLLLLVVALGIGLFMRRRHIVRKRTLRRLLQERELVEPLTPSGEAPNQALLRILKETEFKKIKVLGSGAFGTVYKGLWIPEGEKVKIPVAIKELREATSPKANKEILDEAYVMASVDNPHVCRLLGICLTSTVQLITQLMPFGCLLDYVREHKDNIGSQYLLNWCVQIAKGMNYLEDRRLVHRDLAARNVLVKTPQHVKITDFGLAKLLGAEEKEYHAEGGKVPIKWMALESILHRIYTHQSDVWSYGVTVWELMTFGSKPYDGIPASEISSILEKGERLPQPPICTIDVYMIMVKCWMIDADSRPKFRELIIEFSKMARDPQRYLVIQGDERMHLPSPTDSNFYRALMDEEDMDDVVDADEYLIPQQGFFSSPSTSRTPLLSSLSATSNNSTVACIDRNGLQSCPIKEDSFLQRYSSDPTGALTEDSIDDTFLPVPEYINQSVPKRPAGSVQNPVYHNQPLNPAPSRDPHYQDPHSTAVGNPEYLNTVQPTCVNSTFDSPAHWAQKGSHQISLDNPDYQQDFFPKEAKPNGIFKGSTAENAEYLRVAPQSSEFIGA

Regarding `C#Cc1cccc(Nc2ncnc3cc(OCCCCCCn4ccnc4[N+](=O)[O-])c(OC)cc23)c1`, the negative-log IC50 (pIC50) was 4.99 in data set [1]; 5.86 in data set [2]; 5.35 in data set [3]; 5.57 in data set [4]; 9.24 in data set [5].

For `COc1cc2c(Nc3ccc(F)c(Cl)c3)ncnc2cc1OCCCCCCn1ccnc1[N+](=O)[O-]`, the pIC50 is 4.87 in [1]; 5.74 in data set [2]; 5.25 in data set [3]; 5.19 in data set [4]; 8.84 in data set [5].

Consider `COc1cc2c(Nc3ccc(F)c(Cl)c3)ncnc2cc1OCCCn1ccnc1[N+](=O)[O-]`, for which the negative logarithm of the IC50 (pIC50) in data set [1] was 5.23; in [2], 5.69; in data set [3], 5.21; in data set [4] it was 5.37; in [5] it was 9.11.

Turning to `C#Cc1cccc(Nc2ncnc3cc(OCCCCCn4ccnc4[N+](=O)[O-])c(OC)cc23)c1`, the Drug metabolism entry in data set [6] and in data set [11] was “Metabolite detected” throughout. For the same compound, the metabolised at 0.5 h, 5 µM in data set [7] is less than 10%; in [10] it was more than 80%. In addition, the pIC50 was 6.11 in data set [1]; 6.55 in [2]; 5.88 in data set [3]; 6.74 in data set [4]; 9.33 in data set [5]. Further, the Activity worked out at 26.15% in data set [8] and 12.46% in data set [9].

For `COc1cc2c(Nc3ccc(OCc4cccc(F)c4)c(Cl)c3)ncnc2cc1OCCCCCCn1ccnc1[N+](=O)[O-]`, the pIC50 in data set [1] is less than 4.30; in data set [2] it was less than 4.30; in [3] it was less than 4.30; in [4], less than 4.30; in data set [5] it was 7.45.

On to `C#Cc1cccc(Nc2ncnc3cc(OCCCn4ccnc4[N+](=O)[O-])c(OC)cc23)c1`, for which the negative-log IC50 (pIC50) is 5.64 in data set [1], 5.50 in data set [3] and 5.93 in data set [4].

With `C#Cc1cccc(Nc2ncnc3cc(OCCOCCn4ccnc4[N+](=O)[O-])c(OC)cc23)c1`, the pIC50 is 5.01 in data set [1]; 5.22 in [2]; 5.06 in data set [3]; 5.19 in [4]; 9.27 in [5].

Regarding `COc1cc2c(Nc3cccc(Br)c3)ncnc2cc1OCCOCCn1ccnc1[N+](=O)[O-]`, the pIC50 is 4.89 in data set [1]; 5.46 in [2]; 4.96 in data set [3]; 4.99 in data set [4]; 9.09 in data set [5].

Take `COc1cc2c(Nc3cccc(Br)c3)ncnc2cc1OCCCCn1ccnc1[N+](=O)[O-]`: the pIC50 in data set [1] was 5.51; in data set [2] it was 5.84; in data set [3], 5.40; in [4], 5.71; in [5] it was 9.43.

For `Nc1n[n+]([O-])c2ccccc2[n+]1[O-]` [TIRAPAZAMINE], the pIC50 in [1] is less than 4.30; in data set [3], less than 4.30; in data set [4], 5.16.

As for `COc1cc2c(Nc3cccc(Br)c3)ncnc2cc1OCCCCCn1ccnc1[N+](=O)[O-]`, the pIC50 was 5.06 in data set [1]; 5.60 in data set [2]; 5.30 in [3]; 5.07 in data set [4]; 9.48 in [5].

On to `COc1cc2c(Nc3ccc(OCc4cccc(F)c4)c(Cl)c3)ncnc2cc1OCCOCCn1ccnc1[N+](=O)[O-]`, for which the pIC50 was 5.30 in data set [1]; 5.59 in [2]; 5.12 in [3]; 5.21 in data set [4]; 7.70 in data set [5].

Regarding `COc1cc2c(Nc3ccc(OCc4cccc(F)c4)c(Cl)c3)ncnc2cc1OCCCCn1ccnc1[N+](=O)[O-]`, the pIC50 in data set [1] is 4.98; in data set [2], 5.64; in data set [3], 5.35; in data set [4], 5.06.

As for `COc1cc2c(Nc3cccc(Br)c3)ncnc2cc1OCCCn1ccnc1[N+](=O)[O-]`, the pIC50 in data set [1] is 4.87; in data set [2] it was 5.55; in [3] it was 4.96; in [4] it was 5.11; in [5], 9.31.

As for `COc1cc2c(Nc3ccc(F)c(Cl)c3)ncnc2cc1OCCOCCn1ccnc1[N+](=O)[O-]`, the pIC50 was 4.89 in data set [1]; 5.26 in [2]; 5.01 in data set [3]; 5.12 in data set [4]; 9.49 in [5].

For the compound `COc1cc2c(Nc3ccc(OCc4cccc(F)c4)c(Cl)c3)ncnc2cc1OCCCn1ccnc1[N+](=O)[O-]`, the pIC50 in data set [1] was 5.40; in data set [2], 6.03; in data set [3], 5.42; in [4] it was 5.82; in [5], 7.52.

In the case of `COc1cc2c(Nc3ccc(F)c(Cl)c3)ncnc2cc1OCCCCCn1ccnc1[N+](=O)[O-]`, the negative-log IC50 (pIC50) is 5.37 in data set [1], 5.99 in data set [2], 5.39 in [3] and 5.76 in data set [4].

Turning to `COc1cc2c(Nc3ccc(OCc4cccc(F)c4)c(Cl)c3)ncnc2cc1OCCCCCn1ccnc1[N+](=O)[O-]`, the pIC50 was 4.70 in [1]; 5.30 in [2]; 4.85 in [3]; 4.84 in [4]; 7.78 in data set [5].

`COc1cc2c(Nc3ccc(F)c(Cl)c3)ncnc2cc1OCCCCn1ccnc1[N+](=O)[O-]`: the pIC50 was 5.57 in data set [1]; 6.17 in data set [2]; 5.81 in data set [3]; 5.85 in data set [4]; 9.51 in data set [5].

Turning to `COc1cc2c(Nc3cccc(Br)c3)ncnc2cc1OCCCCCCn1ccnc1[N+](=O)[O-]`, the pIC50 in data set [1] is 4.52; in data set [2] it was 5.37; in [3], 4.98; in data set [4] it was 4.70; in data set [5], 9.11.

As to `C#Cc1cccc(Nc2ncnc3cc(OCCCCn4ccnc4[N+](=O)[O-])c(OC)cc23)c1`, the pIC50 in [1] is 5.66; in [2] it was 6.23; in data set [3], 5.60; in [4] it was 5.97; in [5], 9.59.
